Experiments:
[1] = tested on: human keratinocyte HaCat cell migration; experiment: Wound closure assay, HaCat keratinocytes; assay type: cell-based; settings: 10 nM peptide, 100 pM TGF-β, 24 hours (FIG. 28)
Experimental: FIGS. 28A and 28B show the results of wound closure assays performed using human keratinocyte HaCat cells. […] (FIG. 28A) Human Keratinocyte HaCat cells were starved for 24 hours, scratched with pipette tips, and then treated with 100 pM TGF-β and 10 nM CD109-based peptides as indicated for 24 hours. Microscopy images were taken at time 0 and 24 hours of treatment. (FIG. 28B) Migration distances were measured using the Image J software platform. Error bars represent mean+/−standard deviation, asterisk designates a P value of <0.05.

[2] = tested on: TGF-β1-induced Smad3-driven (CAGA12-lux) transcriptional activity; experiment: Luciferase reporter assay in HEK293-(CAGA)12 cells; assay type: cell-based
[3] = tested on: TGF-β-induced migration of squamous cell carcinoma (A431) cells; experiment: Scratch (wound closure) migration assay, A431 cells; assay type: cell-based; settings: 100 pM TGF-β1, 24 hours, P16 concentrations as indicated (FIG. 27)
Experimental: FIG. 10A and FIG. 10B illustrate that peptides B, E and X-1 inhibit TGF-β-induced cellular migration of A431 cells in vitro. Results are shown prior to treatment (0 hr, top panels) and after treatment (24 hr, bottom panels) for each of the peptides used. (See FIG. 2 and Table 1 for the amino acid sequence identity of the peptides).
A431 cells were grown to 80-90% confluence and serum-starved overnight. The next day, cells were scratched with a plastic pipette tip (time 0 hour) and then left untreated or treated for 24 hours with 100 pM TGF-β1 alone or in the presence of P16 as indicated. (FIG. 27A) Digital images were captured at 0 h and 24 h using an EVOS XL Core microscope. (FIG. 27B) Micrographs were subsequently quantitated to determine the percentage of the wound area that had closed following 24 hours in the presence or absence of P16, as indicated.
Cells were scratched with a pipette tip and treated without or with 100 pM TGF-b1 alone or in the presence of 10 nM Peptide A or Peptide A1 (C31S mutant). Pictures were taken at 0 and 24 hrs. Peptide A but not Peptide A1 inhibits TGF-b-induced migration in A431 cells. Peptide A contains monomeric and dimeric forms whereas Peptide A1 contains a C31S mutation to prevent intermolecular disulfide bond formation so that it forms monomers only.
Squamous cell carcinoma (A431) or breast cancer (MDA-MB-231) cells were grown to 80-90% confluence and serum-starved overnight. The next day, cells were scratched with a plastic pipette tip (time 0 hour) and then left untreated or treated for 24 hours with 100 pM TGF-β1 alone or in the presence of 10 nM peptide B (100 aa), E (67 aa), or X1 (P28, 28 aa). Digital images were captured at 0 h and 24 h (20× magnification) using an EVOS XL Core microscope.

[4] = tested on: bleomycin-induced skin fibrosis; experiment: Bleomycin-induced skin fibrosis (scleroderma) mouse model; assay type: in vivo
Experimental: Wild type mice were treated with bleomycin ([…]) to induce skin fibrosis or PBS (negative control). Mice were treated with CD109 ([…]), P16 ([…]), or PBS by 100 μL subcutaneous injection every other day for 28 days for a total of 14 injections.
(§1) Mice were injected intradermally with bleomycin (5 mg) in […] PBS or PBS alone every second day for 28 days. Mice were co-injected without or with 1.0 mg recombinant CD109 protein or P16 peptide every second day for 28 days (14 mg total). Skin tissue was harvested and immunohistochemical analysis was performed for the detection of Fibronectin, α-sma, CTGF and Type-1 Collagen. Representative images of sections of skin derived from CD109 and p16 treated mice on day 28 after initial bleomycin or PBS treatment are shown. A total of 4-6 different mice per treatment group were analyzed. Original magnification x 20.
as §1, with “phospho-Smad2, phospho-Smad1” for “Fibronectin, α-sma, CTGF”, “TGF-β levels.” for “Type-1 Collagen.”

[5] = tested on: TGF-b-induced phosphorylation of Smad2 in squamous cell carcinoma (A431) cells; experiment: Western blot for phospho-Smad2 in A431 cells; assay type: cell-based; settings: 10 nM peptide, 100 pM TGF-b, 45 min at 4 C (FIG. 32)
Experimental: A431 cancer cells treated with 10 nM of P16.2 (negative peptide control), P16 or PA in the absence or presence of 100 pM TGF-b, followed by 45 min of incubation at 4 C. Cells lysates were analyzed by Western blot using an anti-phosphoSmad2 antibody. Actin expression was used as loading control.

[6] = tested on: TGF-β-induced fibrotic response in human fibroblasts; experiment: Immunoblot of fibrotic markers in human primary fibroblasts; assay type: cell-based; settings: 100 pM TGF-β, different dosage of P16, 24 hrs (FIG. 34)
Experimental: Human primary fibroblasts were starved for 36 hours, then treated with 20 pM TGF-β and 10 nM CD109-based peptide as indicated for 24 hours. (FIG. 29A) Cell lysates were separated by gel electrophoresis, transferred to a membrane, and immunoblotted with antibodies against fibronectin, PAI-1, CTGF, and α-tubulin. (FIG. 29B) The data shown represent the mean expression levels of 3 different biological replicates calculated by densitometry of fibronectin, PAI-1, and CTGF intensity levels normalized to α-tubulin. Error bars represent the standard deviation of the replicate experiments. A single asterisk designates a t test P value of less than 0.05, and a double asterisk indicates a P value of less than 0.01.
Human fibroblasts were starved for 36 hours, then treated with 100 pM TGF-β and different dosage of P16 for 24 hrs. (FIG. 34A) Cell lysates were separated by gel electrophoresis, transferred to a membrane, and immunoblotted with antibodies against each of the indicated proteins. (FIG. 34B) Densitometry analysis was subsequently carried out to quantitate the expression of each of the indicated proteins as a function of P16 concentration.

[7] = co-injected with bleomycin every second day for 28 days (FIG. 37)

ETWIWLDTNMGSRIYQ [Peptide P16]
suppression of HaCat cell migration [1]: suppress | inhibition of TGF-β1-induced CAGA12-lux activity ([2]; 10 nM or 5 nM peptide, 100 pM TGF-β1, 18 hours (FIG. 5)): inhibited | inhibition of TGF-β1-induced CAGA12-lux activity ([2]; 10 nM peptide, 100 pM TGF-β1, 18 hours (FIG. 6)): inhibited | inhibition of A431 cell migration, dose-dependent [3]: inhibit | SMAD1 phosphorylation in skin (immunohistochemistry) [4, 7]: enhancing | SMAD2 phosphorylation in skin (immunohistochemistry) [4, 7]: reduces | TGF-β expression in skin (immunohistochemistry) [4, 7]: reduces | extracellular matrix production (Fibronectin, α-sma, CTGF, Type-1 Collagen, immunohistochemistry) ([4]; co-injected with bleomycin every second day for 28 days, skin on day 28 (FIG. 36)): reduces | collagen content as assessed by trichrome staining ([4]; subcutaneous injection every other day for 28 days (FIG. 35A)): reducing | dermal collagen content, ratio of trichrome stain to total skin area ([4]; subcutaneous injection every other day for 28 days (FIG. 35B)): reducing | dermal thickness ([4]; trichrome staining, subcutaneous injection every other day for 28 days (FIG. 35A)): reducing | inhibition of TGF-b-induced phosphorylation of Smad2 [5]: inhibit | TGF-β-induced expression of fibronectin, collagen (COL1A1), PAI-1, α-SMA and CTGF [6]: attenuate
